| Compound | melting point [°C] |
| --- | --- |
| CCN(CC)C(=O)c1ccc(Cl)c(C2(C)C(=O)N(Cc3ccc(OC)cc3OC)c3ccc(Cl)cc32)c1 (centres undefined) | 86 |
| CCc1nc(/C=C/c2cn(-c3ccccc3)nc2OCc2cc(OCc3nc(-c4ccc(CC(=O)O)cc4)oc3C)no2)cs1 | 156 to 158 |
| FC(F)(F)CN1CCN=C(c2ccccc2)c2cc(Cl)ccc21 | 164 to 165 |
| O=C(Cn1ncc(-c2ccccc2)c1-c1ccccc1)NCCCN1CCCC1 | 75 to 79 |
| CN(Cc1cc(C(F)(F)F)cc(C(F)(F)F)c1)C(=O)c1c(-c2ccccc2)c2ccccc2c(=S)n1C | 145 to 147 |
| COc1c(Cl)cc(N2C(=O)N3CCCC3(Cc3ccc(C#N)cc3)C2=O)cc1Cl (centres undefined) | 95.1 |
| CCCC1CCC(C2CCC(OCCCO)CC2)CC1 (centres undefined) | 110 to 111 |
| CCOC(=O)CCCCC1CC(n2c3ccccc3c3ccccc32)c2ccccc2N1C(=O)c1ccc(OC)cc1 (centres undefined) | 167 to 168 |
| COc1cc2ccccc2c(Br)c1O | 100 to 101 |
| CC(C)=CCc1cc(C2CCc3ccc(O)cc3O2)ccc1O (centres undefined) | 116 to 117 |
| CN1CCN(c2ccc(N)cc2C#N)CC1 | 45 to 46 |
| CCCc1c(-c2ccc(OC(F)F)c(OC3CC3)c2)[nH]c2cnn(COCC[Si](C)(C)C)c(=O)c12 | 208 to 210 |
| CCOC1CC2(C)C(CCC3C4CC(C)C(C(C)=O)C4(C)CC(=O)C32)CC1O (centres undefined) | 178 to 179 |
| CNC(=O)Oc1ccc2c(ccn2NCCCc2ccncc2F)c1 | 165 to 166 |
| Cc1ncsc1C(O)c1ccc(Cl)cc1 (centres undefined) | 134 |
| CCc1nc2c(N)nc3ccccc3c2n1CCCC#Cc1cccc(C(F)(F)F)c1 | 178 to 181 |
| COC(=O)c1cc(OC)c(C)c2c1Oc1c(C=O)c(O)cc(C)c1C(=O)O2 | 264 to 265 |
| Nc1cc(F)c(F)c(Br)c1Cl | 83 to 86 |

The next lines start with the values.

| melting point [°C] | Compound |
| --- | --- |
| 63 to 65 | C[C@@H](N1CCN(C(=O)c2ccc(F)cc2F)CC1)[C@](O)(Cn1cncn1)c1ccc(F)cc1F |
| > 70 | CC(=O)Nc1cc2c(cc1Br)C(Nc1ccc(C(=O)OC(C)(C)C)c(F)c1)CC2 (centres undefined) |
| 237 to 240 | CNS(=O)(=O)c1cn(C)c2cc(C)ccc2c1=O |
| 109 | CCOC(=O)C(=O)Nc1cc(C)c(C)cc1[N+](=O)[O-] |
| 128 to 130 | CCOc1ccc2c(c1)CC(=O)c1cc(C(C)C(N)=O)ccc1S2 (centres undefined) |
| 155 to 157 | COc1ccccc1-n1c(=O)[nH]c2c(C(N)=O)nc(NC[C@H]3CCCN3)nc21 |
| 155 to 156 | CC(C)NC(=O)c1c(C(=O)O)ccc(Cl)c1Cl |
| 102 | COC(=O)c1sc(C(=O)OC)c(-c2ccoc2)c1O |
| 52 | c1ccc2c(c1)ccc1cnsc12 |
| 202 to 203 | CC(C)(C)c1cc(C(=O)Nc2ccccc2C(=O)O)cc(C(C)(C)C)c1O |
| 178 to 180 | COc1ccc(C(=O)Nc2ccc(C)cc2)cc1NC(=S)Nc1cc(Cl)cc(Cl)c1 |
| 206 to 207 | Cc1ccc(S(=O)(=O)N2CCC(c3ccc(O)cc3O)CC2)cc1 |
| 66 to 68 | COC(=O)c1ccc(OC)c(F)c1F |
| 191 to 192 | Clc1cc(Cl)c2cccc3c2c1N=C3NCCCCCn1ccnc1 |
| 141 | COC(=O)c1scc(-c2ccccc2)c1-c1ccc(SC)c(F)c1 |
| 88.4 to 89.1 | CCOC(=O)C1(C(=O)OCC)CCC2(CC1)c1cc(OCC)c(OCC)cc1CCN2C(=O)OCc1ccccc1 |
| 85 to 90 | Cc1noc(NS(=O)(=O)c2ccccc2-c2ccc(-c3ccccn3)cc2)c1C |
| 188 to 189 | CC(C)(C)c1ccc(C(N)=O)c(NC(=O)Nc2cccnc2)c1 |
| > 250 | CN1C(=O)C=C(c2c[nH]c3ncccc23)C1=O |
| 128 to 130 | COc1ccc(S(=O)(=O)N2Cc3ccccc3N(C(=O)c3cccc(C(F)(F)F)c3)CC2C(=O)NO)cc1 (centres undefined) |
| 209 to 210 | CC1CC(=O)NN=C1c1ccc(NC(=NC#N)NCCc2ccccc2)cc1 (centres undefined) |

From a melting point compilation (Tetko et al.; mined from patent text by program, amines drawn as free bases though some values may be those of a salt)
